ChEMBL document CHEMBL4033740, “Novel phenanthrene and isocoumarin from the rhizomes of Dioscorea nipponica Makino subsp. rosthornii (Prain et Burkill) C. T. Ting (Dioscoreaceae)” (Bioorg Med Chem Lett, 2017)

Test system: NCI-H460
Assay: Cytotoxicity against human NCI-H460 cells incubated for 24 hrs by MTT assay
Assay type: functional, cell-based
Details: NCI-H460, 24 h

**Q.** How did the IC50 turn out when `CC(C)C[C@H]1NC(=O)[C@@H]2CCCN2C1=O` was run?
**A.** > 50 µM

**Q.** With `C[C@@H]1CC[C@@]2(OC1)O[C@H]1C[C@H]3[C@@H]4CC=C5C[C@@H](O[C@@H]6O[C@H](CO)[C@@H](O)[C@H](O)[C@H]6O[C@@H]6O[C@@H](C)[C@H](O)[C@@H](O)[C@H]6O)CC[C@]5(C)[C@H]4CC[C@]3(C)[C@H]1[C@@H]2C` [OPHIOPOGONIN C] as the compound, how does the IC50 read?
**A.** 5.04 µM

**Q.** With `O=C1O[C@H](c2ccccc2)Cc2cc(O)cc(O)c21` as the compound, how does the IC50 read?
**A.** > 50 µM

**Q.** With `CC(=O)O[C@H]1CC[C@@]2(C)C(=CC[C@H]3[C@@H]4C[C@@H]5O[C@]6(CC[C@@H](C)CO6)[C@@H](C)[C@@H]5[C@@]4(C)CC[C@@H]32)C1` as the compound, how does the IC50 read?
**A.** > 50 µM

**Q.** For `C[C@@H]1CC[C@@]2(OC1)O[C@H]1C[C@H]3[C@@H]4CC=C5C[C@@H](O[C@@H]6O[C@H](CO)[C@@H](O[C@@H]7O[C@@H](C)[C@H](O)[C@@H](O)[C@H]7O)[C@H](O)[C@H]6O[C@@H]6O[C@@H](C)[C@H](O)[C@@H](O)[C@H]6O)CC[C@]5(C)[C@H]4CC[C@]3(C)[C@H]1[C@@H]2C` [DIOSCIN], which IC50 is on record?
**A.** 4.56 µM

**Q.** How did the IC50 turn out when `COc1cc2ccc3c(-c4c(OC)cc(O)c5c4ccc4cc(OC)c(O)cc45)c(OC)cc(O)c3c2cc1O` was run?
**A.** 23.1 µM

**Q.** Which IC50 does the source give for `CC[C@H](CC[C@@H](C)[C@H]1CC[C@H]2[C@@H]3CC=C4C[C@@H](O[C@@H]5O[C@H](CO)[C@@H](O)[C@H](O)[C@H]5O)CC[C@]4(C)[C@H]3CC[C@]12C)C(C)C` [SITOGLUSIDE] here?
**A.** > 50 µM

**Q.** For `O=c1oc(-c2ccccc2O)cc2cc3c(c(O)c12)OCO3`, which IC50 is on record?
**A.** > 50 µM

**Q.** How did the IC50 turn out when `C[C@@H]1CC[C@@]2(OC1)O[C@H]1C[C@H]3[C@@H]4CC=C5C[C@@H](O)CC[C@]5(C)[C@H]4CC[C@]3(C)[C@H]1[C@@H]2C` [DISOGENIN] was run?
**A.** > 50 µM

**Q.** `O=C(C[C@@H]1C[C@@H](O)C[C@H](c2ccccc2)O1)c1ccccc1` was tested. Which IC50 did it give?
**A.** > 50 µM

**Q.** Which IC50 does the source give for `CCCCC(CC)COC(=O)c1ccccc1C(=O)OCC(CC)CCCC` (centres undefined) [BIS(2-ETHYLHEXYL) PHTHALATE] here?
**A.** > 50 µM

**Q.** Which IC50 does the source give for `O=C(/C=C/C=C/c1ccc(O)cc1)CCc1ccc(O)cc1` here?
**A.** > 50 µM

**Q.** Which IC50 does the source give for `C[C@H]1[C@H]2[C@H](C[C@H]3[C@@H]4CC=C5C[C@@H](O)CC[C@]5(C)[C@H]4CC[C@]23C)O[C@]12CC[C@@H](CO)CO2` here?
**A.** > 50 µM

**Q.** With `C[C@@H]1CC[C@@]2(OC1)O[C@H]1C[C@H]3[C@@H]4CC=C5C[C@@H](O[C@@H]6O[C@H](CO)[C@@H](O[C@@H]7O[C@H](CO)[C@@H](O)[C@H](O)[C@H]7O)[C@H](O)[C@H]6O[C@@H]6O[C@@H](C)[C@H](O)[C@@H](O)[C@H]6O)CC[C@]5(C)[C@H]4CC[C@]3(C)[C@H]1[C@@H]2C` [DELTONIN] as the compound, how does the IC50 read?
**A.** 5.81 µM
